Measurements taken from US6376497B1, “Antifungal azole derivatives having a fluorinated vinyl group and process for preparing same” (Korea Research Institute of Chemical Technology, priority 1999, dated 2002).
In brackets after ≈: the same amount, converted by molar mass.

How the values were obtained:
Experiment in all cases: In vitro antifungal activity, microbroth dilution MIC
Type in all cases: cell-based
[1] = test system: Cryptococcus neoformans A. 34144; settings: 4 to 48 hours; for Minimal inhibitory concentration (MIC): Cry. neoformans A. 34144, RPMI-1640, 35° C.; for Minimal inhibitory concentration(MIC), Cry. neoformans A. 34144: RPMI-1640, 35° C., no growth observed
Summary of the method: (§1)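 Broth microdilution adapted from NCCLS M27, in RPMI-1640 with 0.165 M MOPS, pH 7.0. Yeast or mould inoculum at 2×10^3 CFU/ml was mixed 1:1 with DMSO-derived compound solutions (200 to 0.10 μg/ml before mixing) and incubated at 35 °C for 4 to 48 h. MIC was the concentration showing no growth.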

[2] = test system: Candida albicans IFO. 1385; settings: 4 to 48 hours; for Minimal inhibitory concentration (MIC): C. albicans IFO. 1385, RPMI-1640, 35° C.; for Minimal inhibitory concentration(MIC), C. albicans IFO. 1385: RPMI-1640, 35° C., no growth observed
Summary of the method: as §1

[3] = test system: Trichophyton mentagrophytes B. 32663; settings: 4 to 48 hours; for Minimal inhibitory concentration (MIC): T. mentagrophytes B. 32663, RPMI-1640, 35° C.; for Minimal inhibitory concentration(MIC), T. mentagrophytes B. 32663: RPMI-1640, 35° C., no growth observed
Summary of the method: as §1

[4] = test system: Torulopsis glabrata B. 16205; settings: 4 to 48 hours; for Minimal inhibitory concentration (MIC): T. glabrata B. 16205, RPMI-1640, 35° C.; for Minimal inhibitory concentration(MIC), T. glabrata B. 16205: RPMI-1640, 35° C., no growth observed
Summary of the method: as §1

[5] = test system: Aspergillus niger A. 16404; settings: 4 to 48 hours; for Minimal inhibitory concentration (MIC): A. niger A. 16404, RPMI-1640, 35° C.; for Minimal inhibitory concentration(MIC), A. niger A. 16404: RPMI-1640, 35° C., no growth observed
Summary of the method: as §1

[6] = test system: Cryptococcus neoformans B. 42419; settings: 4 to 48 hours; for Minimal inhibitory concentration (MIC): Cry. neoformans B. 42419, RPMI-1640, 35° C.; for Minimal inhibitory concentration(MIC), Cry. neoformans B. 42419: RPMI-1640, 35° C., no growth observed
Summary of the method: as §1

[7] = test system: Candida parapsitosis A. 7330; settings: 4 to 48 hours; for Minimal inhibitory concentration (MIC): C. parapsitosis A. 7330, RPMI-1640, 35° C.; for Minimal inhibitory concentration(MIC), C. parapsitosis A. 7330: RPMI-1640, 35° C., no growth observed
Summary of the method: as §1

Candida albicans C1-2 = settings: 4 to 48 hours; for Minimal inhibitory concentration (MIC): C. albicans C1-2, RPMI-1640, 35° C.; for Minimal inhibitory concentration(MIC), C. albicans C1-2: RPMI-1640, 35° C., no growth observed
Summary of the method: as §1

[8] = test system: Candida pseudotropicalis K. 11658; settings: 4 to 48 hours; for Minimal inhibitory concentration (MIC): C. pseudotropicalis K. 11658, RPMI-1640, 35° C.; for Minimal inhibitory concentration(MIC), C. pseudotropicalis K. 11658: RPMI-1640, 35° C., no growth observed
Summary of the method: as §1

[9] = test system: Cryptococcus neoformans IFM. 40092; settings: 4 to 48 hours; for Minimal inhibitory concentration (MIC): Cry. neoformans IFM. 40092, RPMI-1640, 35° C.; for Minimal inhibitory concentration(MIC), Cry. neoformans IFM. 40092: RPMI-1640, 35° C., no growth observed
Summary of the method: as §1

Candida krusei K. 11655 = settings: 4 to 48 hours; for Minimal inhibitory concentration (MIC): C. krusei K. 11655, RPMI-1640, 35° C.; for Minimal inhibitory concentration(MIC), C. krusei K. 11655: RPMI-1640, 35° C., no growth observed
Summary of the method: as §1

[10] = test system: Aspergillus furnigatus B. 19119; settings: 4 to 48 hours; for Minimal inhibitory concentration (MIC): A furnigatus B. 19119, RPMI-1640, 35° C.; for Minimal inhibitory concentration(MIC), A furnigatus B. 19119: RPMI-1640, 35° C., no growth observed
Summary of the method: as §1

[11] = test system: Trichophyton mentagrophytes A. 9129; settings: 4 to 48 hours; for Minimal inhibitory concentration (MIC): T. mentagrophytes A. 9129, RPMI-1640, 35° C.; for Minimal inhibitory concentration(MIC), T. mentagrophytes A. 9129: RPMI-1640, 35° C., no growth observed
Summary of the method: as §1

[12] = test system: Candida albicans A. 10231; settings: 4 to 48 hours; for Minimal inhibitory concentration (MIC): C. albicans A. 10231, RPMI-1640, 35° C.; for Minimal inhibitory concentration(MIC), C. albicans A. 10231: RPMI-1640, 35° C., no growth observed
Summary of the method: as §1

[13] = test system: Candida tropicalis A. 13803; settings: 4 to 48 hours; for Minimal inhibitory concentration (MIC): C. tropicalis A. 13803, RPMI-1640, 35° C.; for Minimal inhibitory concentration(MIC), C. tropicalis A. 13803: RPMI-1640, 35° C., no growth observed
Summary of the method: as §1

Minimal inhibitory concentration (MIC) [1] [µg/mL]	Minimal inhibitory concentration (MIC) [2] [µg/mL]	Minimal inhibitory concentration (MIC) [3] [µg/mL]	Minimal inhibitory concentration (MIC) [4] [µg/mL]	Minimal inhibitory concentration (MIC) [5] [µg/mL]	Minimal inhibitory concentration (MIC) [6] [µg/mL]	Minimal inhibitory concentration (MIC) [7] [µg/mL]	Minimal inhibitory concentration (MIC) (Candida albicans C1-2) [µg/mL]	Minimal inhibitory concentration (MIC) [8] [µg/mL]	Minimal inhibitory concentration (MIC) [9]	Minimal inhibitory concentration (MIC) (Candida krusei K. 11655) [µg/mL]	Minimal inhibitory concentration (MIC) [10] [µg/mL]	Minimal inhibitory concentration (MIC) [11] [µg/mL]	Minimal inhibitory concentration (MIC) [12] [µg/mL]	Minimal inhibitory concentration (MIC) [13] [µg/mL]	Minimal inhibitory concentration(MIC), Cry. neoformans A. 34144 [1] [µg/mL]	Minimal inhibitory concentration(MIC), C. albicans IFO. 1385 [2] [µg/mL]	Minimal inhibitory concentration(MIC), T. mentagrophytes B. 32663 [3] [µg/mL]	Minimal inhibitory concentration(MIC), T. glabrata B. 16205 [4] [µg/mL]	Minimal inhibitory concentration(MIC), A. niger A. 16404 [5] [µg/mL]	Compound	also measured
1.56	0.78	1.56	6.25	25.0	0.78	>100	25.0	100	≦0.10 μg/ml	>100	3.13	3.13	12.5	100	–	–	–	–	–	Cc1ccc(C(=C(F)OCC2COC(Cn3ccnc3)(c3ccc(F)cc3F)O2)C(F)(F)F)cc1 (mixture of isomers) [Ex. 54]	–
0.78	0.78	1.56	6.25	100	0.78	25.0	12.5	25.0	≦0.10 μg/ml	25.0	12.5	6.25	12.5	25.0	–	–	–	–	–	Cc1cc(C)c(C=C(F)OCC2COC(Cn3ccnc3)(c3ccc(F)cc3F)O2)cc1C (mixture of isomers) [Ex. 42]	–
3.13 (≈ 6.56 µM)	0.78 (≈ 1.63 µM)	3.13 (≈ 6.56 µM)	6.25 (≈ 13.1 µM)	6.25 (≈ 13.1 µM)	3.13 (≈ 6.56 µM)	12.5 (≈ 26.2 µM)	12.5 (≈ 26.2 µM)	12.5 (≈ 26.2 µM)	1.56 µg/mL (≈ 3.27 µM)	12.5 (≈ 26.2 µM)	6.25 (≈ 13.1 µM)	3.13 (≈ 6.56 µM)	12.5 (≈ 26.2 µM)	12.5 (≈ 26.2 µM)	–	–	–	–	–	Cc1ccc(C=C(F)OCC2COC(Cn3ccnc3)(c3ccc(Cl)cc3Cl)O2)cc1C (stereo not drawn) [Ex. 5]	–
–	–	–	–	–	–	–	–	–	–	–	–	–	–	–	1.56	1.56	0.39	100	>100	CCCCc1ccc(C(=C(F)N2CCN(c3ccc(OCC4COC(Cn5ccnc5)(c5ccc(F)cc5F)O4)cc3)CC2)C(F)(F)F)cc1 (mixture of isomers) [Ex. 140]	Minimal inhibitory concentration(MIC), Cry. neoformans B. 42419 [6]: 1.56 µg/mL; Minimal inhibitory concentration(MIC), C. parapsitosis A. 7330 [7]: 1.56 µg/mL; Minimal inhibitory concentration(MIC), C. albicans C1-2 (Candida albicans C1-2): >100 µg/mL; Minimal inhibitory concentration(MIC), C. pseudotropicalis K. 11658 [8]: 1.56 µg/mL; Minimal inhibitory concentration(MIC), Cry. neoformans IFM. 40092 [9]: 0.39 µg/mL; Minimal inhibitory concentration(MIC), C. krusei K. 11655 (Candida krusei K. 11655): 3.13 µg/mL; Minimal inhibitory concentration(MIC), A furnigatus B. 19119 [10]: 50.0 µg/mL; Minimal inhibitory concentration(MIC), T. mentagrophytes A. 9129 [11]: 12.5 µg/mL; Minimal inhibitory concentration(MIC), C. albicans A. 10231 [12]: >100 µg/mL; Minimal inhibitory concentration(MIC), C. tropicalis A. 13803 [13]: >100 µg/mL
–	–	–	–	–	–	–	–	–	–	–	–	–	–	–	1.56	3.13	3.13	100	>100	FC(Oc1ccc(OCC2COC(Cn3ccnc3)(c3ccc(F)cc3F)O2)cc1)=C(c1cccc(C(F)(F)F)c1)C(F)(F)F (mixture of isomers) [Ex. 111]	Minimal inhibitory concentration(MIC), Cry. neoformans B. 42419 [6]: 3.13 µg/mL; Minimal inhibitory concentration(MIC), C. parapsitosis A. 7330 [7]: 100 µg/mL; Minimal inhibitory concentration(MIC), C. albicans C1-2 (Candida albicans C1-2): 50.0 µg/mL; Minimal inhibitory concentration(MIC), C. pseudotropicalis K. 11658 [8]: 100 µg/mL; Minimal inhibitory concentration(MIC), Cry. neoformans IFM. 40092 [9]: 0.39 µg/mL; Minimal inhibitory concentration(MIC), C. krusei K. 11655 (Candida krusei K. 11655): >100 µg/mL; Minimal inhibitory concentration(MIC), A furnigatus B. 19119 [10]: >100 µg/mL; Minimal inhibitory concentration(MIC), T. mentagrophytes A. 9129 [11]: 6.25 µg/mL; Minimal inhibitory concentration(MIC), C. albicans A. 10231 [12]: 100 µg/mL; Minimal inhibitory concentration(MIC), C. tropicalis A. 13803 [13]: >100 µg/mL
1.56	3.13	6.25	25.0	>100	1.56	>100	50.0	>100	0.39 µg/mL	>100	>100	25.0	25.0	>100	–	–	–	–	–	FC(OCC1COC(Cn2ccnc2)(c2ccc(F)cc2F)O1)=C(c1ccc(Oc2ccccc2)cc1)C(F)(F)F (mixture of isomers) [Ex. 63]	–
–	–	–	–	–	–	–	–	–	–	–	–	–	–	–	1.56	1.56	3.13	50.0	>100	FC(Oc1ccc(OCC2COC(Cn3cncn3)(c3ccc(Cl)cc3Cl)O2)cc1)=C(c1ccc(F)cc1)C(F)(F)F (mixture of isomers) [Ex. 123]	Minimal inhibitory concentration(MIC), Cry. neoformans B. 42419 [6]: 1.56 µg/mL; Minimal inhibitory concentration(MIC), C. parapsitosis A. 7330 [7]: >100 µg/mL; Minimal inhibitory concentration(MIC), C. albicans C1-2 (Candida albicans C1-2): 12.5 µg/mL; Minimal inhibitory concentration(MIC), C. pseudotropicalis K. 11658 [8]: 25.0 µg/mL; Minimal inhibitory concentration(MIC), Cry. neoformans IFM. 40092 [9]: 0.39 µg/mL; Minimal inhibitory concentration(MIC), C. krusei K. 11655 (Candida krusei K. 11655): >100 µg/mL; Minimal inhibitory concentration(MIC), A furnigatus B. 19119 [10]: >100 µg/mL; Minimal inhibitory concentration(MIC), T. mentagrophytes A. 9129 [11]: 6.25 µg/mL; Minimal inhibitory concentration(MIC), C. albicans A. 10231 [12]: 25.0 µg/mL; Minimal inhibitory concentration(MIC), C. tropicalis A. 13803 [13]: 100 µg/mL
–	–	–	–	–	–	–	–	–	–	–	–	–	–	–	6.25	6.25	100	>100	>100	COc1ccc(C=C(F)Oc2ccc(OCC3COC(Cn4ccnc4)(c4ccc(F)cc4F)O3)cc2)cc1 (mixture of isomers) [Ex. 105]	Minimal inhibitory concentration(MIC), Cry. neoformans B. 42419 [6]: 12.5 µg/mL; Minimal inhibitory concentration(MIC), C. parapsitosis A. 7330 [7]: >100 µg/mL; Minimal inhibitory concentration(MIC), C. albicans C1-2 (Candida albicans C1-2): 100 µg/mL; Minimal inhibitory concentration(MIC), C. pseudotropicalis K. 11658 [8]: >100 µg/mL; Minimal inhibitory concentration(MIC), Cry. neoformans IFM. 40092 [9]: 1.56 µg/mL; Minimal inhibitory concentration(MIC), C. krusei K. 11655 (Candida krusei K. 11655): >100 µg/mL; Minimal inhibitory concentration(MIC), A furnigatus B. 19119 [10]: >100 µg/mL; Minimal inhibitory concentration(MIC), T. mentagrophytes A. 9129 [11]: 100 µg/mL; Minimal inhibitory concentration(MIC), C. albicans A. 10231 [12]: 50.0 µg/mL; Minimal inhibitory concentration(MIC), C. tropicalis A. 13803 [13]: >100 µg/mL
